# Experimental data taken from patent publication US11823799B2, “Method for identifying personalized therapeutic strategies for patients affected with a cancer” (UNIVERSITE DE STRASBOURG, priority 2015, dated 2023).
# How the values were obtained:
# recurrent glioblastoma = settings: cited from earlier work
# [1] = system: glioblastoma patient HB21 tumor; experiment: Glioblastoma patient HB21 biopsy cells grafted orthotopically in mouse brain, tumor volume; assay type: in vivo, Immunocompromised mice; settings: for tumor growth inhibition compared to standard of care (Temozolomide): SB-3CT 25 mg/kg p.o, Cediranib 6 mg/kg p.o, 21 days after first treatment
# Protocol: Immunocompromised mice were anesthetized with isoflurane 3% (BAXTER), under 0.5 L 02, and received a subcutaneous injection of ketofen 1% 1.5 mL/Kg (MERIAL). The scalp was incised and 100 000 cells of the dissociated glioblastoma biopsy were engrafted with a 2 μL Hamilton syringe (HARVARD […]; HAM-88400) mounted on a stereotaxic set up (HARVARD […]) at the following coordinates from the bregma x: −2 mm; y: +1 mm; z: −3.5 mm at a speed of 0.66 μl/min, 5 minutes after the syringe introduction. After injection, the syringe was kept in place for 5 minutes, and then raised for 1 mm per minute. The scalp was sutured with 7.5 mm Michel stainless steel wound clips (A75, PERFECT). Animals were allowed to recover under a heat lamp several minutes before they were returned to their cage.
# After 52 days of tumor development, mice were randomized in 4 groups of treatment. First group was treated with Temozolomide 40 mg/kg (n=9) i.v during 5 consecutive days, second one was treated with SB-3CT 25 mg/kg (n=9) p.o during 10 days interrupted by 2 days of wash-out after 5 days, a third group was treated with Cediranib 6 mg/kg (n=10) p.o during 10 days interrupted by 2 days of wash-out after 5 days, a last one group was treated with Erlotinib 50 mg/kg (n=9) p.o 1 time per week during 3 weeks. The administration volume was 100 μL. On the day of termination (21 days after the first treatment), all mice are sacrificed by cervical dislocation, brains are removed (38 total samples), and included in cryo-embedding media OCT© and stored at −80° C.
# Brains were cut in 20 μm sections with a cryostat (LEICA CM 3050S), mounted on blade (Superfrost Super Plus), and stored at −20° C. In order to visualize the tumor, brain sections were thawed in distilled water and Stained with 2% diluted Giemsa's staining (SUBRA; RAL diagnostic 320310-1000) in distilled water at 37° C. for 2 hours. […] Tumor volume was calculated by the addition of every partial volume: [Vtotal=Σpartial volumes=Σd1× (S1+S2)/2+d2×(S2+S3)/2+ . . . +dn× (Sn+Sn+1)]. […]
# PC model (HID-28) [2] = experiment: Prostate tumor PDX model HID-28, subcutaneous tumor growth in mice; assay type: in vivo, nude mice; settings: Cediranib 6 mg/kg p.o; for effect on tumor growth / tumor development: Docetaxel 20 mg/kg i.p, Erlotinib 50 mg/kg p.o, vs vehicle
# Description: Small tumor fragments are subcutaneously implanted in the flank of athymic nude mice. When tumor size reached 1000 to 2000 mm^3, tumors are surgically excised and small tumor fragments (approximately 40 mm^3) are implanted in the subcutaneous tissue of the interscapular region of 82 nude mice. 36 mice with established growing tumors and tumor volume ranging 60 to 200 mm^3 are included in the study and randomized according to their individual tumor volume into 4 groups of 9 mice. Tumor signature is verified during the amplification and also after engraftment.
# The first group is treated with Erlotinib 50 mg/kg (n=9) p.o 1 time per week during 3 weeks, the second is treated with Cediranib 6 mg/kg (n=9) p.o during 3 cycles of 5 days interrupted by 2 days of wash-out, the third group with a mix of the vehicle of Erlotinib and Cediranib (sodium carboxymethylcellulose 0.5%, captisol 15%, DMSO 1% and methylcellulose 0.5%), and the last group is treated with Docetaxel 20 mg/kg (n=9) i.p during 2 cycles of 1 injection every 3 weeks.
# Tumor volume is evaluated biweekly by measuring tumor diameters, with a caliper. The formula TV (mm^3)=[length (mm)×width (mm)^2]/2 will be used, where the length and the width are the longest and the shortest diameters of the tumor, respectively.
# On the day of termination (28 days after the first treatment), mice are sacrificed by cervical dislocation, tumor are collected from all mice (36 tumor samples totally) and serum from 5 mice per group is collected (20 serum samples totally).
# CC model (CR-IC-028M) = experiment: Colorectal tumor PDX model CR-IC-028M, subcutaneous tumor growth in mice; assay type: in vivo, SWISS Nude mice; settings: Cediranib 6 mg/kg p.o
# Description: Small tumor fragments were subcutaneously implanted in the right flank of 9 CB17 SCID mice. When tumor size reached 500-700 mm^3, tumors were surgically excised and small tumor fragments were subcutaneously implanted in the right flank of 52 recipient SWISS Nude mice.
# The treatment started when tumors reached a mean volume of 200-300 mm^3. 40 animals out were randomized according to their individual tumor volume into 4 groups each of 10 animals using Vivo Manager® software (Biosystemes, Couternon, France). A statistical test (analysis of variance) was performed to test for homogeneity between groups.
# The administration volume for the two models was 10 mL/kg (200 μL/mouse of 20 g) adjusted to the most recent individual body weight of mice.
# The tumor volume was calculated by [(a×b^2) 2], where a is the largest tumor diameter and b the perpendicular tumor diameter measured with a caliper every 3 days.
# On the day of termination (31 days after the first treatment), mice were sacrificed (40 total samples) by gas anesthesia over-dosage (Isoflurane) followed by cervical dislocation or exsanguination and tumor were collected from all mice.
# PC model (HID-28) [3] = settings: cited from earlier work
compound,measurement,setting,value
Bevacizumab,PFS and OS advantage in phase III trials,recurrent glioblastoma; AVAglio and RTOG phase III trials (Soffietti 2014),significant advantage for Bevacizumab treated patients in term of PFS but not of OS
same,patients who seem to benefit from treatment,recurrent glioblastoma; overall,less than 50%
C#Cc1cccc(Nc2ncnc3cc(OCCOC)c(OCCOC)cc23)c1 [Erlotinib],efficacy when compared to all other drugs,"[1]; Erlotinib 50 mg/kg p.o 1 time per week, 3 weeks, not significantly different",−60%
same,effect on tumor growth / tumor development,PC model (HID-28) [2],not efficient in blocking tumor development
COc1cc2c(Oc3ccc4[nH]c(C)cc4c3F)ncnc2cc1OCCCN1CCCC1 [Cediranib],tumor growth inhibition compared to standard of care (Temozolomide),[1],identical to the one obtained with the standard of care
same,effect on tumor growth / tumor development,"CC model (CR-IC-028M); Cetuximab 12.5 mg/kg i.p, Trastuzumab 1 mg/kg i.p, vs vehicle",very significant anti-tumor activity
same,tumor volume change,"CC model (CR-IC-028M); end point of the protocol, p=0.01, T-test, evolution of tumor growth P<0.0001",−50%
same,effect on tumor growth / tumor development,PC model (HID-28) [2],very significant anti-tumor activity
same,tumor volume change,"PC model (HID-28) [2]; end point of the protocol, p=0.002, T-test, evolution of tumor growth P<0.0001",−78%
O=S(=O)(CC1CS1)c1ccc(Oc2ccccc2)cc1 (stereo not drawn) [SB-3CT],tumor growth inhibition compared to standard of care (Temozolomide),[1],identical to the one obtained with the standard of care
CC(=O)O[C@@]12CO[C@@H]1C[C@H](O)[C@@]1(C)C(=O)[C@H](O)C3=C(C)[C@@H](OC(=O)[C@H](O)[C@@H](NC(=O)OC(C)(C)C)c4ccccc4)C[C@@](O)([C@@H](OC(=O)c4ccccc4)[C@H]21)C3(C)C [Docetaxel],effect on tumor growth / tumor development,PC model (HID-28) [2],tumor growth was inhibited
same,response of the model in previous results,PC model (HID-28) [3],responsive
